Measurements published in patent publication US20240228481A1, “NOVEL SULFONAMIDE SERIES OF QR2 INHIBITORS TO TACKLE OXIDATIVE STRESS AND COGNITIVE DECLINE” (CARMEL HAIFA UNIVERSITY ECONOMIC CORPORATION LTD., priority 2021, published 2024).
Where a name gives a salt, the structure may show the parent alone.

Experiments:
QR1 (NQO1) = molecular target: T1, QR1 (NQO1) (Homo sapiens, UniProt P15559); test: Selectivity assay with QR1 in place of QR2, absorbance readout; format: biochemical
T1 construct: purchased Sigma-Aldrich

QR2 = molecular target: T2, QR2 (Homo sapiens, UniProt P16083); test: Cellular thermal shift assay (CETSA) of QR2 in HEK293T cells; format: cell-based; parameters: endogenous in cells; host or cells: HEK293T
T2 sequence (P16083 1-231): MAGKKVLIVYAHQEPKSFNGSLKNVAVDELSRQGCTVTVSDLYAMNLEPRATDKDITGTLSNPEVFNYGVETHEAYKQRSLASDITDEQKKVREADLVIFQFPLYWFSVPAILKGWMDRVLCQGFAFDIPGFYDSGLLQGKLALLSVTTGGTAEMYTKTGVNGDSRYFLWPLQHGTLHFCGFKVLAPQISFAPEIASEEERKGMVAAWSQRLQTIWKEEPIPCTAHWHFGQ
Protocol: The CETSA assay was performed as described (Miettinen and Björklund, 2014) with some modifications. Briefly, HEK293T cells were trypsinized (Biological Industries), washed in PBS (Sigma-Aldrich), and then suspended in PBS containing protease inhibitor cocktail (Roche). The suspended cells were then divided into two Eppendorf tubes and were treated with either: a compound or DMSO (Sigma-Aldrich) for 1 h at 37° C. under shaking. Following treatment, each sample was divided into PCR tubes (100 μL/tube) and subjected to a temperature gradient (ranging from 63 to 80° C.) for 3 minutes. Cell lysates were obtained by 3-cycles of freeze-thaw using liquid nitrogen and a thermal block set to 25° C. Samples were then centrifuged at 15,000 rpm at 4° C. for 20 min and were subsequently analyzed by western blot targeting QR2 (1:100, Santa Cruz; sc-271665). The isothermal dose response fingerprint (ITDRF) experiments were done using a constant temperature of 73° C. Band intensities were normalized to the highest concentration and superoxide dismutase 1 (SOD1) levels (1:200, Santa Cruz; sc-17767). Analysis of the results were performed according to Jafari et al., (2014) using GraphPad Prism software.
To establish direct target engagement, as well as cell membrane permeability, a cellular thermal shift assay (CETSA) was carried out (see methods), using the leading compounds YB-537, YB-800, and YB-808. Following 1 h preincubation with 5 μM of each of the compounds, or vehicle, thermal aggregation curves (Tagg) of QR2 expressed in HEK293T were measured in increasing temperatures. […] Based on the Tagg curves, the inventors selected 73° C. for isothermal dose-response fingerprint (IDTRF) experiments (FIG. 2B).

in vitro = conditions: human
Protocol: THLE-2 (CRL-2706™) were grown in the BEGM Bullet Kit (CC-3170) from Lonza. Besides the additives contained in the kit, the medium was further supplemented with 5 ng/mL EGF (Sigma), 70 ng/mL phosphoethanolamine (Sigma) and 10% FBS (Biological Industries). The plates for the THLE-2 needed to be pre-coated with a mixture of 0.01 mg/mL fibronectin, 0.05 mg/mL of PureCol™ EZ Gel Solution (Sigma) and 0.01 mg/mL of BSA dissolved in BEBM medium (Lonza). The coating medium was aspirated before seeding.
THLE-2 cells were exposed to the compounds in a 9-point, 2-fold dilution dose response series with a 100 μM as upper limit, for 72 h. Following the 72 h of exposure to the test compounds, cell viability was determined by measuring the concentration of cellular ATP (CellTiter Glo, Promega). The luminescence signal was measured on a Pherastar FS multi-mode plate reader (BMG Labtech). Each data point was tested in a triplicate.
First, toxicity was assessed in an ATP depletion assay, using THLE-2 cells following a 72 h exposure to a dose response of each of the tested compounds.

T1 sequence (P15559 whole entry): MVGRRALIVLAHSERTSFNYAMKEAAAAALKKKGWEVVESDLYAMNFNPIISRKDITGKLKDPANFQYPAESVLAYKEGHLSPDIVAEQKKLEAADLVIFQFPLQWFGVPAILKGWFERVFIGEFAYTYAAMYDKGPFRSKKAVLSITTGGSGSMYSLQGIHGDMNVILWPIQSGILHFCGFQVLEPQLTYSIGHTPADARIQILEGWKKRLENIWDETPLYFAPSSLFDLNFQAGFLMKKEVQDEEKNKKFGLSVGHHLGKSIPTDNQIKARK

SMILES	IC50 (QR1 (NQO1)) [µM]	thermal stability of QR2 (thermal aggregation curve) versus vehicle (QR2; 5 μM, 1 h preincubation)	EC50 (QR2; CETSA at 73° C., read-out: EC50 of QR2 stabilization (isothermal dose-response fingerprint)) [µM]	IC50 at 72 h (in vitro) [µM]
Cc1cccn2cc(-c3cccc(S(=O)(=O)N4CCC(C)CC4)c3)nc12 [YB-800]	> 9.99	shifts of thermal stability	0.034	
Cc1ccc(-c2cn3cccc(C)c3n2)cc1S(=O)(=O)N1CCNCC1 [YB-537, 8-methyl-2-(4-methyl-3-(piperazin-1-ylsulfonyl)phenyl)imidazo[1,2-a]pyridine hydrochloride]				> 99
